Experimental data published in the NIST ThermoML archive (doi:10.1021/acs.jced.7b01091).
± gives the expanded uncertainty stated by the source.

Conditions: Liquid; for vapor or sublimation pressure: Closed cell (Static) method; for mass density: 101.33 kPa, Vibrating tube method

Question: With ClCCCl [1,2-dichloroethane] as the molecule, how does the “vapor or sublimation pressure” value (284.87 K) read?
Answer: The value was 5.38 ± 0.11 kPa.

Question: What about the “vapor or sublimation pressure” value (294.83 K) of the same molecule?
Answer: The value was 8.97 ± 0.18 kPa.

Question: What about the “vapor or sublimation pressure” value (294.84 K) of the same molecule?
Answer: Its value is 8.96 ± 0.18 kPa.

Question: What about the mass density (298.15 K) of the same molecule?
Answer: The mass density was 1245.68 ± 2.5 kg/m3.

Question: What about the “vapor or sublimation pressure” value (298.15 K) of the same molecule?
Answer: Its value is 10.53 ± 0.21 kPa.

Question: What about the “vapor or sublimation pressure” value (304.82 K) of the same molecule?
Answer: The value was 14.34 ± 0.29 kPa.

Question: What about the “vapor or sublimation pressure” value (314.81 K) of the same molecule?
Answer: The value was 22.19 ± 0.45 kPa.

Question: What about the “vapor or sublimation pressure” value (314.83 K) of the same molecule?
Answer: The value was 22.18 ± 0.45 kPa.

Question: What about the “vapor or sublimation pressure” value (324.83 K) of the same molecule?
Answer: The value was 33.27 ± 0.67 kPa.

Question: What about the “vapor or sublimation pressure” value (334.82 K) of the same molecule?
Answer: Its value is 48.47 ± 0.97 kPa.

Question: What about the “vapor or sublimation pressure” value (344.81 K) of the same molecule?
Answer: Its value is 67.97 ± 1.4 kPa.

Question: And the “vapor or sublimation pressure” value (354.89 K)?
Answer: The value was 94.96 ± 1.9 kPa.

Question: Which “vapor or sublimation pressure” value (275 K) does the source give for C1COCO1 [1,3-dioxolane] here?
Answer: Its value is 3.86 ± 0.08 kPa.

Question: And the “vapor or sublimation pressure” value (284.94 K)?
Answer: Its value is 6.74 ± 0.14 kPa.

Question: What about the “vapor or sublimation pressure” value (294.82 K) of the same molecule?
Answer: The value was 11.33 ± 0.23 kPa.

Question: And the mass density (298.15 K)?
Answer: Its mass density is 1058.76 ± 2.1 kg/m3.

Question: And the “vapor or sublimation pressure” value (298.15 K)?
Answer: The value was 13.31 ± 0.27 kPa.

Question: And the “vapor or sublimation pressure” value (304.79 K)?
Answer: Its value is 18.26 ± 0.37 kPa.

Question: And the “vapor or sublimation pressure” value (314.76 K)?
Answer: The value was 28.28 ± 0.57 kPa.

Question: And the “vapor or sublimation pressure” value (324.9 K)?
Answer: Its value is 43.07 ± 0.87 kPa.

Question: What about the “vapor or sublimation pressure” value (334.85 K) of the same molecule?
Answer: The value was 62.99 ± 1.3 kPa.

Question: And the “vapor or sublimation pressure” value (344.82 K)?
Answer: The value was 89.85 ± 1.8 kPa.

Question: And the “vapor or sublimation pressure” value (350.77 K)?
Answer: The value was 109.39 ± 2.2 kPa.

Question: Which “vapor or sublimation pressure” value (284.59 K) does the source give for C1COCCO1 [1,4-dioxane] here?
Answer: Its value is 2.23 ± 0.05 kPa.

Question: What about the “vapor or sublimation pressure” value (294.82 K) of the same molecule?
Answer: The value was 3.92 ± 0.08 kPa.

Question: And the mass density (298.15 K)?
Answer: Its mass density is 1027.87 ± 2.1 kg/m3.

Question: And the “vapor or sublimation pressure” value (298.15 K)?
Answer: Its value is 4.68 ± 0.09 kPa.

Question: What about the “vapor or sublimation pressure” value (304.81 K) of the same molecule?
Answer: The value was 6.58 ± 0.13 kPa.

Question: And the “vapor or sublimation pressure” value (314.76 K)?
Answer: Its value is 10.54 ± 0.21 kPa.

Question: What about the “vapor or sublimation pressure” value (324.92 K) of the same molecule?
Answer: The value was 16.71 ± 0.34 kPa.

Question: And the “vapor or sublimation pressure” value (334.92 K)?
Answer: Its value is 25.52 ± 0.51 kPa.

Question: And the “vapor or sublimation pressure” value (344.89 K)?
Answer: The value was 37.55 ± 0.75 kPa.

Question: What about the “vapor or sublimation pressure” value (354.92 K) of the same molecule?
Answer: Its value is 54.11 ± 1.1 kPa.

Question: For C1CCOCC1 [tetrahydropyran], which “vapor or sublimation pressure” value (275.59 K) is on record?
Answer: Its value is 2.85 ± 0.06 kPa.

Question: What about the “vapor or sublimation pressure” value (285.53 K) of the same molecule?
Answer: The value was 4.91 ± 0.1 kPa.

Question: What about the “vapor or sublimation pressure” value (295.42 K) of the same molecule?
Answer: The value was 8.07 ± 0.16 kPa.

Question: And the mass density (298.15 K)?
Answer: The mass density was 879.16 ± 1.8 kg/m3.

Question: And the “vapor or sublimation pressure” value (298.15 K)?
Answer: Its value is 9.25 ± 0.19 kPa.

Question: And the “vapor or sublimation pressure” value (305.37 K)?
Answer: The value was 12.85 ± 0.26 kPa.

Question: And the “vapor or sublimation pressure” value (315.36 K)?
Answer: The value was 19.9 ± 0.4 kPa.

Question: What about the “vapor or sublimation pressure” value (325.65 K) of the same molecule?
Answer: The value was 29.99 ± 0.6 kPa.

Question: And the “vapor or sublimation pressure” value (335.6 K)?
Answer: The value was 43.81 ± 0.88 kPa.

Question: What about the “vapor or sublimation pressure” value (345.59 K) of the same molecule?
Answer: Its value is 61.17 ± 1.2 kPa.

Question: And the “vapor or sublimation pressure” value (355.49 K)?
Answer: Its value is 84.29 ± 1.7 kPa.
